Patent US11648253B2, “Thienopyrimidinone NMDA receptor modulators and uses thereof” (Novartis AG, priority 2015, dated 2023)

Molecular target: T1, NMDA receptor (GRIN1 / GRIN2B, NR2B) expressed in HEK293 cells (Homo sapiens, UniProt Q05586+Q13224)
T1 construct: host or cells: HEK293
Experiment: Reversal of Ro 25-6981-mediated suppression of Ca2+ response (fluo-8 fluorescence, FDSS) in HEK293 cells expressing GRIN1/GRIN2B
Format: cell-based
Conditions: % reversal of Ro 25-6981 suppression of co-agonist (glutamate/glycine) Ca2+ response, test concentration not given
Description: HEK293 cells with constructs conferring stable expression of the GRIN1 gene and tetracycline-inducible expression of the GRIN2B gene (Chantest, Cleveland, Ohio) are grown to ˜75% confluence in tissue culture flasks at 37° C., 5% CO2. NR2B expression is induced by overnight incubation with 0.3-0.4 μg/ml tetracycline in the presence of 2.5 mM ARL-15896 at 37° C., followed by moving to 30° C. for 3-5 hours. Cells are next harvested using TripleExpressm (Life Technologies, Carlsbad, Calif.) according to the manufacturer's instructions, first removing culture medium, rinsing with Dulbecco's phosphate buffered saline (Ca^2+ and Mg^2+-free), and then adding the TripleExpressm reagent. Harvested cells are spun down, washed twice in Ca^2+- and Mg^2+-free Hank's Balanced Salt Solution with 20 mM HEPES and 10 mM glucose, pH 7.4 (HHnoCa solution), and counted with viability assessed using Trypan Blue. Cells are loaded with fluo-8 Ca^2+-sensitive dye in HHnoCa solution according to the manufacturer's directions (AAT Bioquest, Sunnyvale, Calif.), incubating at 37° C. for 20 minutes followed by 25 minutes at 22-25° C. After a wash in HHnoCa to remove extracellular dye, cells are resuspended in HHnoCa and plated at […] cells per well in a volume of 25 μl/well in 384 well black-wall, clear bottom plates (Hamamatsu, Middlesex, N.J.). Plates are then centrifuged to create a monolayer in the wells and stored in the dark until used.
Prior to analysis, compound plates are prepared with each compound at 6× the final desired concentration. From stock solutions at 10 mM in 100% DMSO, compounds are spotted in the desired amounts using an ECHO liquid handler (Labcyte, Sunnyvale, Calif.) into wells of a 384-well plate and then diluted with 50 μl of HHnoCa containing 750 nM Ro 25-6981 and 120 μM 5,7-dichlorokynurenic acid (both purchased from Tocris Bioscience (Bristol, England) and maintained as 10 mM stock solutions in 100% DMSO). To insure complete compound dissolution, these plates are then placed in an orbital shaker for at least one hour. Also prepared prior to the assay is a co-agonist plate containing HHnoCa with 240 μM glutamate, 2.4 mM glycine, and 7.2 mM CaCl2, which is 2.4× the desired final concentration of each reagent. Both the compound plate and co-agonist plate are 384-well polypropylene plates from Thermo Fisher Scientific, Waltham, Mass.
The assay is performed by first adding 10 μl solution from each well of the compound plate described above to the cell plate using a CyBiWell liquid handler (Analytik Jena AG, Jena, Germany), followed by 10 minutes pre-incubation in the dark. Cell plates are then loaded onto a Hamamatsu FDSS 6000 plate reader. After a 30-second baseline, 25 μl is added to each well from the co-agonist plate, and the fluorescence signal is recorded for another 2 minutes. FDSS software applies shading and autofluorescence correction, and resultant raw fluorescence measurements are exported in the form of a fluorescence ratio for each well to its own reading at time zero in the experiment. In each plate, negative control wells consist of wells where Ro 25-6981 and 5,7 dichlorokynurenic acid are present and co-agonist is applied in the absence of any added assay compound. Under these conditions, the Ca^2+ response to co-agonist is suppressed. Positive control wells also present in each plate contain 5,7 dichlorokynurenic acid but no Ro 25-6981, so that co-agonist addition results in a large Ca^2+ response. Compounds tested are evaluated on the basis of their ability to reverse the suppression of the Ca^2+ response mediated by Ro 25-6981, which is quantified as % reversal=100*(R−Rneg)/(Rpos−Rneg) where R is the fluorescence ratio for the test compound at the end of the experiment and Rneg and Rpos are the end ratios for the negative and positive controls, respectively. […]

T1 sequence (Q13224 27-1484, other chains not shown): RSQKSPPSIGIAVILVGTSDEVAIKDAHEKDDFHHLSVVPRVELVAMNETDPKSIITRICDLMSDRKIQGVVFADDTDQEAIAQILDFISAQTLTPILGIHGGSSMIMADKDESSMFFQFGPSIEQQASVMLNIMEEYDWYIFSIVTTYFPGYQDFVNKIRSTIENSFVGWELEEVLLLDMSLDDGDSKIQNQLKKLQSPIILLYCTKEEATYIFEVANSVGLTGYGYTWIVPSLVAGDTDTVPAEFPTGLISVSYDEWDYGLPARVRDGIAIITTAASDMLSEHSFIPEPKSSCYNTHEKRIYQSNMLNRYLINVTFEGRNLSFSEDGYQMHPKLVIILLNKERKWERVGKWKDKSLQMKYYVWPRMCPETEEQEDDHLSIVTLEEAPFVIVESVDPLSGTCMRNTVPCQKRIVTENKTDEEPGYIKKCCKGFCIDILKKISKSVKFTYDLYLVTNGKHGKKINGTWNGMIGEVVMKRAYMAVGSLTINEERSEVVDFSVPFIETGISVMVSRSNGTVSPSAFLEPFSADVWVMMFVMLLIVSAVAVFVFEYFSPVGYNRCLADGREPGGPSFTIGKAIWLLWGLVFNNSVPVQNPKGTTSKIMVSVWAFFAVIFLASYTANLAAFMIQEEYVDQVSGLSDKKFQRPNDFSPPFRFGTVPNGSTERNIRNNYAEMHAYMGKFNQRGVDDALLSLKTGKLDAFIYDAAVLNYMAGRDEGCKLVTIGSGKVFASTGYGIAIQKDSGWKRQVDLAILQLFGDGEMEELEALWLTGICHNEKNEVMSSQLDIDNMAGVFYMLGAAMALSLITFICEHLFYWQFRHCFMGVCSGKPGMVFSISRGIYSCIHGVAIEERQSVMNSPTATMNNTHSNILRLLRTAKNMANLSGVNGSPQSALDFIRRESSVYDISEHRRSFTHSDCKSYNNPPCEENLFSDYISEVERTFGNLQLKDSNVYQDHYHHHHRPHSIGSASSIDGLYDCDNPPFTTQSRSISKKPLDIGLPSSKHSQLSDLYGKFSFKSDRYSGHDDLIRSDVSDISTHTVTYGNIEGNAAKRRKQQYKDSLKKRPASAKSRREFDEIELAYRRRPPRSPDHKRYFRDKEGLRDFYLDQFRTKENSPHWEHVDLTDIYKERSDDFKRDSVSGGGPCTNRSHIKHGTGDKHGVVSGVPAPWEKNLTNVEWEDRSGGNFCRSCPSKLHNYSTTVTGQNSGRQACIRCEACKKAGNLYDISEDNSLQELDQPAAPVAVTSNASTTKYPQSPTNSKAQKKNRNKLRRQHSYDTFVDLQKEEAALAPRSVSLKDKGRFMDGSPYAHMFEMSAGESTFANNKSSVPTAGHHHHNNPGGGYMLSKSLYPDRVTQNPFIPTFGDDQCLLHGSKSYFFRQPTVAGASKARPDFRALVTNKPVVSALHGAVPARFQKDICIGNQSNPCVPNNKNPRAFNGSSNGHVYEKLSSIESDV

Row | Avg Response Recovered (%) | SMILES
1 | 7% | O=C(Cn1cnc2scc(-c3ccc(Cl)cc3)c2c1=O)N1CC(F)(F)C1 [Example 2, 5-(4-chlorophenyl)-3-[2-(3,3-difluoroazetidin-1-yl)-2-oxoethyl]-3H,4H-thieno[2,3-d]pyrimidin-4-one]
2 | 0% | O=C(Cn1cnc2scc(-c3ccc(Cl)cc3)c2c1=O)N1CC2(COC2)C1 [Example 3, 5-(4-chlorophenyl)-3-(2-{2-oxa-6-azaspiro[3.3]heptan-6-yl}-2-oxoethyl)-3H,4H-thieno[2,3-d]pyrimidin-4-one]
3 | 1% | COC1CN(C(=O)Cn2cnc3scc(-c4ccc(Cl)cc4)c3c2=O)C1 [Example 4, 5-(4-chlorophenyl)-3-[2-(3-methoxyazetidin-1-yl)-2-oxoethyl]-3H,4H-thieno[2,3-d]pyrimidin-4-one]
4 | 11% | O=C(Cn1cnc2scc(-c3ccc(C(F)(F)F)cc3)c2c1=O)N1CC(F)(F)C1 [Example 5, 3-[2-(3,3-difluoroazetidin-1-yl)-2-oxoethyl]-5-[4-(trifluoromethyl)phenyl]-3H,4H-thieno[2,3-d]pyrimidin-4-one]
5 | 62% | O=C(Cn1cnc2scc(-c3ccc(Cl)c(C(F)(F)F)c3)c2c1=O)N1CC(F)(F)C1 [Example 6, 5-[4-chloro-3-(trifluoromethyl)phenyl]-3-[2-(3,3-difluoroazetidin-1-yl)-2-oxoethyl]-3H,4H-thieno[2,3-d]pyrimidin-4-one]
6 | 6% | O=C(Cn1cnc2scc(-c3ccc(F)cc3)c2c1=O)N1CC(F)(F)C1 [Example 7, 3-[2-(3,3-difluoroazetidin-1-yl)-2-oxoethyl]-5-(4-fluorophenyl)-3H,4H-thieno[2,3-d]pyrimidin-4-one]
7 | 5% | Cc1ccc(-c2csc3ncn(CC(=O)N4CC(F)(F)C4)c(=O)c23)cc1 [Example 8, 3-[2-(3,3-difluoroazetidin-1-yl)-2-oxoethyl]-5-(4-methylphenyl)-3H,4H-thieno[2,3-d]pyrimidin-4-one]
8 | 49% | O=C(Cn1cnc2scc(-c3ccc(F)c(Cl)c3)c2c1=O)N1CC(F)(F)C1 [Example 9, 5-(3-chloro-4-fluorophenyl)-3-[2-(3,3-difluoroazetidin-1-yl)-2-oxoethyl]-3H,4H-thieno[2,3-d]pyrimidin-4-one]
9 | 121% | O=C(Cn1cnc2scc(-c3ccc(Cl)c(Cl)c3)c2c1=O)N1CC(F)(CF)C1 [Example 10, 5-(3,4-dichlorophenyl)-3-{2-[3-fluoro-3-(fluoromethyl)azetidin-1-yl]-2-oxoethyl}-3H,4H-thieno[2,3-d]pyrimidin-4-one]
10 | 152% | CC1(F)CN(C(=O)Cn2cnc3scc(-c4ccc(Cl)c(Cl)c4)c3c2=O)C1 [Example 11, 5-(3,4-dichlorophenyl)-3-[2-(3-fluoro-3-methylazetidin-1-yl)-2-oxoethyl]-3H,4H-thieno[2,3-d]pyrimidin-4-one]
11 | 149% | CCC1(F)CN(C(=O)Cn2cnc3scc(-c4ccc(F)c(Cl)c4)c3c2=O)C1 [Example 12, 5-(3-chloro-4-fluorophenyl)-3-[2-(3-ethyl-3-fluoroazetidin-1-yl)-2-oxoethyl]-3H,4H-thieno[2,3-d]pyrimidin-4-one]
12 | 141% | O=C(Cn1cnc2scc(-c3ccc(F)c(Cl)c3)c2c1=O)N1CC(F)(CF)C1 [Example 13, 5-(3-chloro-4-fluorophenyl)-3-{2-[3-fluoro-3-(fluoromethyl)azetidin-1-yl]-2-oxoethyl}-3H,4H-thieno[2,3-d]pyrimidin-4-one]
13 | 165% | CC1(F)CN(C(=O)Cn2cnc3scc(-c4ccc(F)c(Cl)c4)c3c2=O)C1 [Example 14, 5-(3-chloro-4-fluorophenyl)-3-[2-(3-fluoro-3-methylazetidin-1-yl)-2-oxoethyl]-3H,4H-thieno[2,3-d]pyrimidin-4-one]
14 | 103% | CCC1(F)CN(C(=O)Cn2cnc3scc(-c4ccc(Cl)c(Cl)c4)c3c2=O)C1 [Example 15, 5-(3,4-dichlorophenyl)-3-[2-(3-ethyl-3-fluoroazetidin-1-yl)-2-oxoethyl]-3H,4H-thieno[2,3-d]pyrimidin-4-one]
15 | 24% | COC1CN(C(=O)Cn2cnc3sc(-c4ccc(Cl)cc4)cc3c2=O)C1 [Example 17, 6-(4-chlorophenyl)-3-[2-(3-methoxyazetidin-1-yl)-2-oxoethyl]-3H,4H-thieno[2,3-d]pyrimidin-4-one]
16 | −1% | O=C(CCn1cnc2scc(-c3ccc(Cl)c(C(F)(F)F)c3)c2c1=O)N1CC(F)(F)C1 [Example 20, 5-[4-chloro-3-(trifluoromethyl)phenyl]-3-[3-(3,3-difluoroazetidin-1-yl)-3-oxopropyl]-3H,4H-thieno[2,3-d]pyrimidin-4-one]

Row | SMILES | Avg Response Recovered (%)
17 | O=C(Cn1cnc2scc(-c3ccc(Cl)cc3)c2c1=O)N1CCC1 [Example 1, 3-[2-(azetidin-1-yl)-2-oxoethyl]-5-(4-chlorophenyl)-3H,4H-thieno[2,3-d]pyrimidin-4-one] | 2%
18 | O=C(Cn1cnc2sc(-c3ccc(Cl)cc3)cc2c1=O)N1CCC1 [Example 16, 3-[2-(azetidin-1-yl)-2-oxoethyl]-6-(4-chlorophenyl)-3H,4H-thieno[2,3-d]pyrimidin-4-one] | 23%
19 | Cc1sc2ncn(CC(=O)N3CC(F)(F)C3)c(=O)c2c1-c1ccc(Cl)cc1 [Example 18, 5-(4-chlorophenyl)-3-[2-(3,3-difluoroazetidin-1-yl)-2-oxoethyl]-6-methyl-3H,4H-thieno[2,3-d]pyrimidin-4-one] | 11%
20 | Cc1nc2scc(-c3ccc(Cl)cc3)c2c(=O)n1CC(=O)N1CC(F)(F)C1 [Example 19, 5-(4-chlorophenyl)-3-[2-(3,3-difluoroazetidin-1-yl)-2-oxoethyl]-2-methyl-3H,4H-thieno[2,3-d]pyrimidin-4-one] | 5%
21 | O=C(Cn1c(C(F)(F)F)nc2scc(-c3ccc(Cl)cc3)c2c1=O)N1CC(F)(F)C1 [Example 21, 5-(4-chlorophenyl)-3-[2-(3,3-difluoroazetidin-1-yl)-2-oxoethyl]-2-(trifluoromethyl)-3H,4H-thieno[2,3-d]pyrimidin-4-one] | 0%
